Experimental data taken from PubChem BioAssay AID1918952 (Molecular Pharmacology Branch, DTP, NCI, 2023).
pIC50: −log10 of the molar value.

System: LG0703-F948-PDC complex spheroid viability
Test: Anticancer human tumor LG0703-F948-PDC patient-derived lung adenocarcinoma cell line growth inhibition
Details: for pIC50: curve of first compound; for viability, T/C: stronger effect = lower value
Procedure, shortened: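 Drug combinations with the LSD1 inhibitor iadademstat tested on tumor cells co-cultured as spheroids with endothelial cells and mesenchymal stem cells. Concentrations descended in half-log increments from clinical Cmax or 10 microM.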

[1] = second compound 0.1 µM, first compound 0.000949 µM
[2] = second compound 0.1 µM, first compound 0.003 µM
[3] = second compound 0.1 µM, first compound 0.00949 µM
[4] = second compound 0.1 µM, first compound 0.03 µM
[5] = second compound 0.1 µM, first compound 0.0949 µM
[6] = second compound 0.1 µM, first compound 0.3 µM
[7] = second compound 0.316 µM, first compound 0.000949 µM
[8] = second compound 0.316 µM, first compound 0.003 µM
[9] = second compound 0.316 µM, first compound 0.00949 µM
[10] = second compound 0.316 µM, first compound 0.03 µM
[11] = second compound 0.316 µM, first compound 0.0949 µM
[12] = second compound 0.316 µM, first compound 0.3 µM
[13] = second compound 1 µM, first compound 0.000949 µM
[14] = second compound 1 µM, first compound 0.003 µM
[15] = second compound 1 µM, first compound 0.00949 µM
[16] = second compound 1 µM, first compound 0.03 µM
[17] = second compound 1 µM, first compound 0.0949 µM
[18] = second compound 1 µM, first compound 0.3 µM
[19] = second compound 3.16 µM, first compound 0.000949 µM
[20] = second compound 3.16 µM, first compound 0.003 µM
[21] = second compound 3.16 µM, first compound 0.00949 µM
[22] = second compound 3.16 µM, first compound 0.03 µM
[23] = second compound 3.16 µM, first compound 0.0949 µM
[24] = second compound 3.16 µM, first compound 0.3 µM
[25] = second compound 10 µM, first compound 0.000949 µM
[26] = second compound 10 µM, first compound 0.003 µM
[27] = second compound 10 µM, first compound 0.00949 µM
[28] = second compound 10 µM, first compound 0.03 µM
[29] = second compound 10 µM, first compound 0.0949 µM
[30] = second compound 10 µM, first compound 0.3 µM
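Note: spheroids exposed to agents for seven days before readout.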
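Throughout, for viability, T/C: 100% = DMSO vehicle control wells as normalization base.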

Structure (SMILES): CC[C@@]1(O)C(=O)OCc2c1cc1n(c2=O)Cc2cc3c(CN(C)C)c(O)ccc3nc2-1 + NC1CC1c1ccc(-c2cccc(O)c2)cc1
- pIC50 (second compound 0.1 µM): < 7.00
- pIC50 (second compound 0.316 µM): < 7.00
- pIC50 (second compound 1 µM): < 7.00
- pIC50 (second compound 3.16 µM): < 7.00
- pIC50 (second compound 10 µM): < 7.00
- viability, T/C (second compound 0.1 µM, first compound 0.000316 µM): 117%
- viability, T/C (second compound 0.1 µM, first compound 0.001 µM): 116%
- viability, T/C (second compound 0.1 µM, first compound 0.00316 µM): 106%
- viability, T/C (second compound 0.1 µM, first compound 0.01 µM): 84.8%
- viability, T/C (second compound 0.1 µM, first compound 0.0316 µM): 70%
- viability, T/C (second compound 0.1 µM, first compound 0.1 µM): 49.7%
- viability, T/C (second compound 0.316 µM, first compound 0.000316 µM): 118%
- viability, T/C (second compound 0.316 µM, first compound 0.001 µM): 107%
- viability, T/C (second compound 0.316 µM, first compound 0.00316 µM): 106%
- viability, T/C (second compound 0.316 µM, first compound 0.01 µM): 82.8%
- viability, T/C (second compound 0.316 µM, first compound 0.0316 µM): 64.5%
- viability, T/C (second compound 0.316 µM, first compound 0.1 µM): 55.3%
- viability, T/C (second compound 1 µM, first compound 0.000316 µM): 114%
- viability, T/C (second compound 1 µM, first compound 0.001 µM): 109%
- viability, T/C (second compound 1 µM, first compound 0.00316 µM): 97.8%
- viability, T/C (second compound 1 µM, first compound 0.01 µM): 95.2%
- viability, T/C (second compound 1 µM, first compound 0.0316 µM): 67.1%
- viability, T/C (second compound 1 µM, first compound 0.1 µM): 54.3%
- viability, T/C (second compound 3.16 µM, first compound 0.000316 µM): 108%
- viability, T/C (second compound 3.16 µM, first compound 0.001 µM): 97.2%
- viability, T/C (second compound 3.16 µM, first compound 0.00316 µM): 100%
- viability, T/C (second compound 3.16 µM, first compound 0.01 µM): 89.2%
- viability, T/C (second compound 3.16 µM, first compound 0.0316 µM): 81.9%
- viability, T/C (second compound 3.16 µM, first compound 0.1 µM): 71.5%
- viability, T/C (second compound 10 µM, first compound 0.000316 µM): 103%
- viability, T/C (second compound 10 µM, first compound 0.001 µM): 115%
- viability, T/C (second compound 10 µM, first compound 0.00316 µM): 107%
- viability, T/C (second compound 10 µM, first compound 0.01 µM): 76.5%
- viability, T/C (second compound 10 µM, first compound 0.0316 µM): 78.8%
- viability, T/C (second compound 10 µM, first compound 0.1 µM): 62.1%

Structure (SMILES): CCc1c2c(nc3ccc(O)cc13)-c1cc3c(c(=O)n1C2)COC(=O)[C@]3(O)CC + NC1CC1c1ccc(-c2cccc(O)c2)cc1
- pIC50 (second compound 0.1 µM): 8.92
- pIC50 (second compound 0.316 µM): 8.88
- pIC50 (second compound 1 µM): 8.63
- pIC50 (second compound 3.16 µM): 8.51
- pIC50 (second compound 10 µM): 8.58
- viability, T/C [1]: 55.8%
- viability, T/C [2]: 29.2%
- viability, T/C [3]: 21.3%
- viability, T/C [4]: 11.7%
- viability, T/C [5]: 5.98%
- viability, T/C [6]: 3.08%
- viability, T/C [7]: 54.8%
- viability, T/C [8]: 37.7%
- viability, T/C [9]: 24.2%
- viability, T/C [10]: 12.6%
- viability, T/C [11]: 5.51%
- viability, T/C [12]: 2.54%
- viability, T/C [13]: 68.2%
- viability, T/C [14]: 44.7%
- viability, T/C [15]: 25.4%
- viability, T/C [16]: 11.7%
- viability, T/C [17]: 5.78%
- viability, T/C [18]: 2.05%
- viability, T/C [19]: 69.9%
- viability, T/C [20]: 49.7%
- viability, T/C [21]: 29.8%
- viability, T/C [22]: 12.2%
- viability, T/C [23]: 2.96%
- viability, T/C [24]: 1.53%
- viability, T/C [25]: 68.4%
- viability, T/C [26]: 47.3%
- viability, T/C [27]: 23.1%
- viability, T/C [28]: 8%
- viability, T/C [29]: 1.01%
- viability, T/C [30]: 0.49%

Structure (SMILES): Nc1ccn(C2OC(CO)C(O)C2(F)F)c(=O)n1 (stereo not given) + NC1CC1c1ccc(-c2cccc(O)c2)cc1
- pIC50 (second compound 0.1 µM): 7.90
- pIC50 (second compound 0.316 µM): 7.13
- pIC50 (second compound 1 µM): 7.00
- pIC50 (second compound 3.16 µM): 6.84
- pIC50 (second compound 10 µM): < 6.52
- viability, T/C [1]: 79%
- viability, T/C [2]: 50.8%
- viability, T/C [3]: 51.9%
- viability, T/C [4]: 56.6%
- viability, T/C [5]: 43.9%
- viability, T/C [6]: 32.3%
- viability, T/C [7]: 70.2%
- viability, T/C [8]: 63.9%
- viability, T/C [9]: 66.8%
- viability, T/C [10]: 54%
- viability, T/C [11]: 48.9%
- viability, T/C [12]: 37.6%
- viability, T/C [13]: 76.9%
- viability, T/C [14]: 66.5%
- viability, T/C [15]: 63.6%
- viability, T/C [16]: 60.1%
- viability, T/C [17]: 51.9%
- viability, T/C [18]: 40.3%
- viability, T/C [19]: 81.5%
- viability, T/C [20]: 80.6%
- viability, T/C [21]: 87.3%
- viability, T/C [22]: 66%
- viability, T/C [23]: 57.1%
- viability, T/C [24]: 41.4%
- viability, T/C [25]: 87%
- viability, T/C [26]: 78.3%
- viability, T/C [27]: 83.9%
- viability, T/C [28]: 68.9%
- viability, T/C [29]: 59%
- viability, T/C [30]: 51.5%
